In patent US12077503B2, “Substituted cyclic amides and their use as herbicides” (FMC CORPORATION, priority 2015, dated 2024):

Experiments:
Assay type in all cases: in vivo
[1] = system: ducksalad (Heteranthera limosa); experiment: Test B flooded paddy test; details: Flood, 250 g ai/ha; 0 to 100 scale where 0 is no effect and 100 is complete control; 13 to 15 d
In short: (§1)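 Visual ratings (0 none to 100 complete control) are relative to untreated plants, taken 13–15 d after treatment in a greenhouse. Test material went straight into floodwater standing 3 cm above the soil, kept constant, on plants at the 2-leaf stage.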

[2] = system: barnyardgrass (Echinochloa crus-galli); experiment: Test B flooded paddy test; details: Flood, 250 g ai/ha; 0 to 100 scale where 0 is no effect and 100 is complete control; 13 to 15 d
In short: as §1

[3] = system: rice (Oryra sativa); experiment: Test B flooded paddy test; details: Flood, 250 g ai/ha; 0 to 100 scale where 0 is no effect and 100 is complete control; 13 to 15 d
In short: as §1

[4] = system: sedge, umbrella (small-flower umbrella sedge, Cyperus difformis); experiment: Test B flooded paddy test; details: Flood, 250 g ai/ha; 0 to 100 scale where 0 is no effect and 100 is complete control; 13 to 15 d
In short: as §1

[5] = system: pigweed (Amaranthus retroflexus); experiment: Test A preemergence; details: Preemergence; for Plant response rating, Pigweed: 125 g ai/ha, visual injury after approximately 10 d, 0 to 100 scale where 0 is no effect and 100 is complete control; for Pigweed plant response rating (0 to 100 scale, 0 is no effect, 100 is complete control): 500 g ai/ha, visual injury approx. 10 d
[6] = system: ryegrass, Italian (Italian ryegrass, Lolium multiflorum); experiment: Test A preemergence; details: Preemergence; for Plant response rating, Ryegrass, Italian: 125 g ai/ha, visual injury after approximately 10 d, 0 to 100 scale where 0 is no effect and 100 is complete control; for Ryegrass, Italian plant response rating (0 to 100 scale, 0 is no effect, 100 is complete control): 500 g ai/ha, visual injury approx. 10 d
In short: (§2)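 Treatment is preemergence as a directed soil spray after planting, or postemergence at the one- to two-leaf stage, with test chemical in a non-phytotoxic solvent mixture plus surfactant. Plants stay in the greenhouse about 10 d before visual injury scoring on a 0 to 100 scale versus untreated controls.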

[7] = system: barnyardgrass (Echinochloa crus-galli); experiment: Test A preemergence; details: Preemergence; for Plant response rating, Barnyardgrass: 125 g ai/ha, visual injury after approximately 10 d, 0 to 100 scale where 0 is no effect and 100 is complete control; for Barnyardgrass plant response rating (0 to 100 scale, 0 is no effect, 100 is complete control): 500 g ai/ha, visual injury approx. 10 d
In short: as §2

[8] = system: giant foxtail (Setaria faberii); experiment: Test A preemergence; details: Preemergence; for Plant response rating, Foxtail, Giant: 125 g ai/ha, visual injury after approximately 10 d, 0 to 100 scale where 0 is no effect and 100 is complete control; for Foxtail, Giant plant response rating (0 to 100 scale, 0 is no effect, 100 is complete control): 500 g ai/ha, visual injury approx. 10 d
In short: as §2

[9] = system: Kochia (Kochia scoparia); experiment: Test A preemergence; details: Preemergence; for Plant response rating, Kochia: 125 g ai/ha, visual injury after approximately 10 d, 0 to 100 scale where 0 is no effect and 100 is complete control; for Kochia plant response rating (0 to 100 scale, 0 is no effect, 100 is complete control): 500 g ai/ha, visual injury approx. 10 d
In short: as §2

[10] = system: ragweed (common ragweed, Ambrosia elatior); experiment: Test A preemergence; details: Preemergence; for Plant response rating, Ragweed: 125 g ai/ha, visual injury after approximately 10 d, 0 to 100 scale where 0 is no effect and 100 is complete control; for Ragweed plant response rating (0 to 100 scale, 0 is no effect, 100 is complete control): 500 g ai/ha, visual injury approx. 10 d
In short: as §2

[11] = system: pigweed (Amaranthus retroflexus); experiment: Test A postemergence
In short: as §2

[12] = system: wheat (Triticum aestivum); experiment: Test A postemergence
In short: as §2

[13] = system: ryegrass, Italian (Italian ryegrass, Lolium multiflorum); experiment: Test A postemergence
In short: as §2

[14] = system: Galium (catchweed bedstraw, Galium aparine); experiment: Test A postemergence
In short: as §2

[15] = system: barnyardgrass (Echinochloa crus-galli); experiment: Test A postemergence
In short: as §2

[16] = system: blackgrass (Alopecurus myosuroides); experiment: Test A postemergence
In short: as §2

[17] = system: corn (Zea mays); experiment: Test A postemergence
In short: as §2

[18] = system: giant foxtail (Setaria faberii); experiment: Test A postemergence
In short: as §2

[19] = system: Kochia (Kochia scoparia); experiment: Test A postemergence
In short: as §2

[20] = system: ragweed (common ragweed, Ambrosia elatior); experiment: Test A postemergence
In short: as §2

[21] = 125 g ai/ha, postemergence, visual rating after approx. 10 d, 0 to 100 scale (0 no effect, 100 complete control)
[22] = Postemergence, 500 g ai/ha, 0 to 100 scale where 0 is no effect and 100 is complete control
[23] = 125 g ai/ha, postemergence, visual injury rating on 0 to 100 scale (0 no effect, 100 complete control), approx. 10 d

Structure (SMILES) | Plant response rating, Ducksalad [1] | Plant response rating, Barnyardgrass [2] | Plant response rating, Rice [3] | Plant response rating, Sedge, Umbrella [4] | Plant response rating, Pigweed [5] | Pigweed plant response rating (0 to 100 scale, 0 is no effect, 100 is complete control) [5] | Plant response rating, Ryegrass, Italian [6] | Ryegrass, Italian plant response rating (0 to 100 scale, 0 is no effect, 100 is complete control) [6] | Plant response rating, Barnyardgrass [7] | Barnyardgrass plant response rating (0 to 100 scale, 0 is no effect, 100 is complete control) [7] | Plant response rating, Foxtail, Giant [8] | Foxtail, Giant plant response rating (0 to 100 scale, 0 is no effect, 100 is complete control) [8] | Plant response rating, Kochia [9] | Kochia plant response rating (0 to 100 scale, 0 is no effect, 100 is complete control) [9] | Plant response rating, Ragweed [10] | Ragweed plant response rating (0 to 100 scale, 0 is no effect, 100 is complete control) [10] | Plant response rating, Pigweed [11, 22] | Plant response rating, Wheat [12, 22] | Plant response rating, Ryegrass, Italian [13, 22] | Plant response rating, Galium [14, 22] | further results
C#CCN1CC(c2cccc(C(F)(F)F)c2)C(C(=O)Nc2ccccc2F)C1=O (stereo not drawn) [Compound 607] | 50 | 0 | 0 | 0 | 0 | 0 | 0 | 0 | 0 | 30 | 80 | 90 | 0 | 0 | 0 | 0 | 0 | 20 | 0 | 0 | Plant response rating, Pigweed [11, 21]: 0; Plant response rating, Wheat [12, 21]: 0; Plant response rating, Ryegrass, Italian [13, 21]: 0; Plant response rating, Galium [14, 21]: 0; Plant response rating, Barnyardgrass [15, 21]: 20; Plant response rating, Barnyardgrass [15, 22]: 60; Plant response rating, Blackgrass [16, 21]: 0; Plant response rating, Blackgrass [16, 22]: 0; Plant response rating, Corn [17, 21]: 0; Plant response rating, Corn [17, 22]: 0; Plant response rating, Foxtail, Giant [18, 21]: 20; Plant response rating, Foxtail, Giant [18, 22]: 60; Plant response rating, Kochia [19, 21]: 0; Plant response rating, Kochia [19, 22]: 0; Plant response rating, Ragweed [20, 21]: 0; Plant response rating, Ragweed [20, 22]: 0
CC(C)c1ccc(C2CNC(=O)C2C(=O)Nc2ccccc2S(C)(=O)=O)cc1 (racemic) [Compound 500] | 65 | 0 | 0 | 0 | 0 | 20 | 0 | 0 | 0 | 40 | 80 | 90 | 50 | 50 | 0 | 0 | 0 | 20 | 0 | 0 | Pigweed plant response rating [11, 23]: 0; Wheat plant response rating [12, 23]: 0; Ryegrass, Italian plant response rating [13, 23]: 0; Galium plant response rating [14, 23]: 0; Barnyardgrass plant response rating [15, 23]: 0; Plant response rating, Barnyardgrass [15, 22]: 50; Blackgrass plant response rating [16, 23]: 0; Plant response rating, Blackgrass [16, 22]: 0; Corn plant response rating [17, 23]: 0; Plant response rating, Corn [17, 22]: 20; Foxtail, Giant plant response rating [18, 23]: 0; Plant response rating, Foxtail, Giant [18, 22]: 50; Kochia plant response rating [19, 23]: 0; Plant response rating, Kochia [19, 22]: 20; Ragweed plant response rating [20, 23]: 0; Plant response rating, Ragweed [20, 22]: 40
